Species: Rattus norvegicus
Experiment: DrugMatrix - Regimen: Daily Repeat
Format: toxicity, organism-based, Sprague-Dawley
Parameters: regimen Daily Repeat, gender Male, age 6-8 weeks
Settings: in vivo, po, 0 mg/kg, route oral GAVAGE, dose level Control; for ABSOLUTE BASOPHIL / ABSOLUTE EOSINOPHIL / ABSOLUTE LYMPHOCYTE / ABSOLUTE MONOCYTE / ABSOLUTE SEGMENTED NEUTROPHIL / BASOPHIL / EOSINOPHIL / ERYTHROCYTE COUNT / HEMATOCRIT / HEMOGLOBIN / LEUKOCYTE COUNT / LYMPHOCYTE / MEAN CORPUSCULAR HEMOGLOBIN / MEAN CORPUSCULAR HEMOGLOBIN CONCENTRATION / MEAN CORPUSCULAR VOLUME / MONOCYTE / NEUTROPHIL / NUCLEATED RED BLOOD CELLS / PLATELET COUNT: tissue Blood; for ALANINE AMINOTRANSFERASE / ALBUMIN / ALKALINE PHOSPHATASE / ASPARTATE AMINOTRANSFERASE / BLOOD UREA NITROGEN / CARBON DIOXIDE / CHLORIDE / CHOLESTEROL / CREATINE PHOSPHOKINASE / CREATININE / GLUCOSE / LACTATE DEHYDROGENASE / LIPASE / PHOSPHORUS / POTASSIUM / SODIUM / TOTAL BILIRUBIN / TOTAL PROTEIN / URIC ACID: tissue Plasma
[1] = 72 h, time 3 day, vehicle 100 % WATER

Cn1cnc([N+](=O)[O-])c1Sc1ncnc2nc[nH]c12 [AZATHIOPRINE]
ABSOLUTE BASOPHIL (72 h, time 3 day, […]): 0 CELLS/uL
ABSOLUTE EOSINOPHIL (72 h, time 3 day, […]): 0 CELLS/uL
ABSOLUTE LYMPHOCYTE (72 h, time 3 day, […]): 7601 CELLS/uL
ABSOLUTE MONOCYTE (72 h, time 3 day, […]): 354.33 CELLS/uL
ABSOLUTE SEGMENTED NEUTROPHIL (72 h, time 3 day, […]): 744.67 CELLS/uL
BASOPHIL (72 h, time 3 day, […]): 0%
EOSINOPHIL (72 h, time 3 day, […]): 0%
ERYTHROCYTE COUNT (72 h, time 3 day, […]): 5.03 x10E6/uL
HEMATOCRIT (72 h, time 3 day, […]): 33.7%
HEMOGLOBIN (72 h, time 3 day, […]): 13.43 G/DL
LEUKOCYTE COUNT (72 h, time 3 day, […]): 8.7 x10E3/uL
LYMPHOCYTE (72 h, time 3 day, […]): 86.33%
MEAN CORPUSCULAR HEMOGLOBIN (72 h, time 3 day, […]): 26.7 pg
MEAN CORPUSCULAR HEMOGLOBIN CONCENTRATION (72 h, time 3 day, […]): 39.83 G/DL
MEAN CORPUSCULAR VOLUME (72 h, time 3 day, […]): 67 fL
MONOCYTE (72 h, time 3 day, […]): 4.67%
NEUTROPHIL (72 h, time 3 day, […]): 9%
NUCLEATED RED BLOOD CELLS (72 h, time 3 day, […]): 0 /100WBC
PLATELET COUNT (72 h, time 3 day, […]): 1151 x10E3/uL
ABSOLUTE EOSINOPHIL [1]: 91.5 CELLS/uL
ABSOLUTE LYMPHOCYTE [1]: 14108.83 CELLS/uL
ABSOLUTE MONOCYTE [1]: 81 CELLS/uL
ABSOLUTE SEGMENTED NEUTROPHIL [1]: 818.67 CELLS/uL
EOSINOPHIL [1]: 0.67%
ERYTHROCYTE COUNT [1]: 5.56 x10E6/uL
HEMATOCRIT [1]: 34.5%
HEMOGLOBIN [1]: 13.45 G/DL
LEUKOCYTE COUNT [1]: 15.1 x10E3/uL
LYMPHOCYTE [1]: 93%
MEAN CORPUSCULAR HEMOGLOBIN [1]: 24.2 pg
MEAN CORPUSCULAR HEMOGLOBIN CONCENTRATION [1]: 38.98 G/DL
MEAN CORPUSCULAR VOLUME [1]: 62.07 fL
MONOCYTE [1]: 0.5%
NEUTROPHIL [1]: 5.83%
PLATELET COUNT [1]: 1193.33 x10E3/uL
ALANINE AMINOTRANSFERASE (72 h, time 3 day, […]): 97.67 u/L
ALBUMIN (72 h, time 3 day, […]): 4.07 G/DL
ALKALINE PHOSPHATASE (72 h, time 3 day, […]): 607.67 u/L
ASPARTATE AMINOTRANSFERASE (72 h, time 3 day, […]): 101 u/L
BLOOD UREA NITROGEN (72 h, time 3 day, […]): 13.33 mg/dL
CARBON DIOXIDE (72 h, time 3 day, […]): 36 mmol/L
CHLORIDE (72 h, time 3 day, […]): 99.67 MEQ/L
CHOLESTEROL (72 h, time 3 day, […]): 75.67 mg/dL
CREATINE PHOSPHOKINASE (72 h, time 3 day, […]): 279.67 u/L
CREATININE (72 h, time 3 day, […]): 0.16 mg/dL
GLUCOSE (72 h, time 3 day, […]): 164 mg/dL
LACTATE DEHYDROGENASE (72 h, time 3 day, […]): 115 u/L
LIPASE (72 h, time 3 day, […]): 12.67 u/L
PHOSPHORUS (72 h, time 3 day, […]): 8.77 mg/dL
POTASSIUM (72 h, time 3 day, […]): 5.79 MEQ/L
SODIUM (72 h, time 3 day, […]): 142.83 MEQ/L
TOTAL BILIRUBIN (72 h, time 3 day, […]): 0.27 mg/dL
TOTAL PROTEIN (72 h, time 3 day, […]): 5.8 G/DL
URIC ACID (72 h, time 3 day, […]): 0.67 mg/dL
ALANINE AMINOTRANSFERASE [1]: 60.33 u/L
ALBUMIN [1]: 4 G/DL
ALKALINE PHOSPHATASE [1]: 334.83 u/L
ASPARTATE AMINOTRANSFERASE [1]: 74.5 u/L
BLOOD UREA NITROGEN [1]: 13.5 mg/dL
CARBON DIOXIDE [1]: 30.33 mmol/L
CHLORIDE [1]: 98.33 MEQ/L
CHOLESTEROL [1]: 71.17 mg/dL
CREATINE PHOSPHOKINASE [1]: 212 u/L
CREATININE [1]: 0.21 mg/dL
GLUCOSE [1]: 173.17 mg/dL
LACTATE DEHYDROGENASE [1]: 101.5 u/L
LIPASE [1]: 24.17 u/L
PHOSPHORUS [1]: 10.87 mg/dL
POTASSIUM [1]: 6.06 MEQ/L
SODIUM [1]: 140.58 MEQ/L
TOTAL BILIRUBIN [1]: 0.17 mg/dL
TOTAL PROTEIN [1]: 5.9 G/DL
URIC ACID [1]: 1.23 mg/dL
ABSOLUTE BASOPHIL (120 h, time 5 day, […]): 0 CELLS/uL
ABSOLUTE EOSINOPHIL (120 h, time 5 day, […]): 0 CELLS/uL
ABSOLUTE LYMPHOCYTE (120 h, time 5 day, […]): 4426.33 CELLS/uL
ABSOLUTE MONOCYTE (120 h, time 5 day, […]): 102.67 CELLS/uL
ABSOLUTE SEGMENTED NEUTROPHIL (120 h, time 5 day, […]): 337.67 CELLS/uL
BASOPHIL (120 h, time 5 day, […]): 0%
EOSINOPHIL (120 h, time 5 day, […]): 0%
ERYTHROCYTE COUNT (120 h, time 5 day, […]): 5.31 x10E6/uL
HEMATOCRIT (120 h, time 5 day, […]): 32.5%
HEMOGLOBIN (120 h, time 5 day, […]): 13.17 G/DL
LEUKOCYTE COUNT (120 h, time 5 day, […]): 4.87 x10E3/uL
LYMPHOCYTE (120 h, time 5 day, […]): 90.33%
MEAN CORPUSCULAR HEMOGLOBIN (120 h, time 5 day, […]): 24.93 pg
MEAN CORPUSCULAR HEMOGLOBIN CONCENTRATION (120 h, time 5 day, […]): 40.67 G/DL
MEAN CORPUSCULAR VOLUME (120 h, time 5 day, […]): 61.33 fL
MONOCYTE (120 h, time 5 day, […]): 2.33%
NEUTROPHIL (120 h, time 5 day, […]): 7.33%
NUCLEATED RED BLOOD CELLS (120 h, time 5 day, […]): 0.33 /100WBC
PLATELET COUNT (120 h, time 5 day, […]): 848.33 x10E3/uL
ABSOLUTE EOSINOPHIL (120 h, time 5 day, vehicle 100 % WATER): 34.5 CELLS/uL
